In assay [1] the target is T1, N-acetyltransferase Eis (Mycobacterium tuberculosis (strain ATCC 25618 / H37Rv), UniProt P9WFK7).
T1 sequence (P9WFK7 whole entry): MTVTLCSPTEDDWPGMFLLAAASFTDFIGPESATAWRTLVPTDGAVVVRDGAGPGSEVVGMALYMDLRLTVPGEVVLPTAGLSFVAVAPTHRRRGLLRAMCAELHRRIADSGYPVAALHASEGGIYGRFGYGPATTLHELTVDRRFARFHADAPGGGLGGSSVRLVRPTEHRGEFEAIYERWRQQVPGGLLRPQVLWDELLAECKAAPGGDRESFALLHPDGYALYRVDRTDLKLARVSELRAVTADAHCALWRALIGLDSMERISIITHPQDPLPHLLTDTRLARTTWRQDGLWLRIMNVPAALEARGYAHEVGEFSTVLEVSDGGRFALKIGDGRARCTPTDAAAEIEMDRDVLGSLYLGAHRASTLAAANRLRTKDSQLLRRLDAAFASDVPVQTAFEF
Put plainly: Inhibition of wild-type Mycobacterium tuberculosis Eis expressed in Escherichia coli BL21(DE3) cells incubated for 5 mins by Ellman's method. For orientation: DTNB colorimetry detects thiols as they appear.

Assay [2] relates to Mycobacterium tuberculosis. Put plainly: Antibacterial activity against Mycobacterium tuberculosis H37Ra assessed as bacterial growth inhibition incubated 2 to 3 weeks by resazurin dye based assay. It is filed as functional. Particulars: time 2-3 weeks. For orientation: The colour change of resazurin is a common sign of viable cells or microbes.
Assay [3] deals with Mycobacterium tuberculosis. Put plainly: Antibacterial activity against Mycobacterium tuberculosis mc2 6230 assessed as bacterial growth inhibition incubated 2 to 3 weeks by resazurin dye based assay. It is filed as functional. Particulars: time 2-3 weeks.
In assay [4] the test system is Mycolicibacterium smegmatis. Put plainly: Antibacterial activity against Mycobacterium smegmatis mc2 122 assessed as bacterial growth inhibition incubated for 2 to 3 weeks by resazurin dye based assay. It is filed as functional. Particulars: time 2-3 weeks.
In assay [5] the test system is Mycobacteroides abscessus. Put plainly: Antibacterial activity against Mycobacterium abscessus ATCC 19977 assessed as bacterial growth inhibition incubated for 2 to 3 weeks by resazurin dye based assay. It is filed as functional. Particulars: time 2-3 weeks.
Assay [6] concerns Mycobacterium avium. Put plainly: Antibacterial activity against Mycobacterium avium ATCC 25291 assessed as bacterial growth inhibition incubated for 2 to 3 weeks by resazurin dye based assay. Type of assay: functional. Particulars: time 2-3 weeks.
Assay [7] deals with Mycobacterium intracellulare. The assay can be described thus: Antibacterial activity against Mycobacterium intracellulare ATCC 13950 assessed as bacterial growth inhibition incubated for 2 to 3 weeks by resazurin dye based assay. It is filed as functional. Particulars: time 2-3 weeks.
In assay [8] the test system is Mycobacterium parascrofulaceum. The assay can be described thus: Antibacterial activity against Mycobacterium parascrofulaceum ATCC BAA-614 assessed as bacterial growth inhibition incubated for 2 to 3 weeks by resazurin dye based assay. It is filed as functional. Particulars: time 2-3 weeks.
Assay [9] deals with Mycobacterium tuberculosis. The assay can be described thus: Antibacterial activity against Mycobacterium tuberculosis H37Rv assessed as MIC of kanamycin A at 100 uM incubated for 24 hrs followed by kanamycin A addition measured after 6 days by alamarblue dye based assay. It is filed as functional. The settings on record: for MIC: 168 h, time 7 day; for Activity: time 7.0 day.

Converted amounts (≈) assume the structure as drawn. The source made the active and inactive calls. No cut-off for these calls is given here. Bounds are passed on as bounds.

Regarding `Brc1ccc(COc2ccc(CNCc3ccccc3)cc2)cc1`, the IC50 in [1] came to 1.5 µM. Also, the MIC amounted to 7.8 µM (≈ 2.98 µg/mL) in assay [2]; 12.5 µM (≈ 4.78 µg/mL) in assay [3]; 7.8 µM (≈ 2.98 µg/mL) in assay [4]; 15.6 µM (≈ 5.96 µg/mL) in assay [5]; 62.5 µM (≈ 23.9 µg/mL) in assay [6]; 15.6 µM (≈ 5.96 µg/mL) in assay [7]. The MIC in [8] was found to be 7.8 µM (≈ 2.98 µg/mL).
For `CC(C)c1ccc(COc2ccc(CNCc3ccccc3)cc2)cc1`, in assay [1], the IC50 worked out at 1.4 µM. Moreover, the MIC in [2] is no more than 0.5 µM; in [3] it was 0.78 µM (≈ 0.269 µg/mL); in [4], 3.9 µM (≈ 1.35 µg/mL); in [5], 7.8 µM (≈ 2.69 µg/mL); in [6] it was 15.6 µM (≈ 5.39 µg/mL); in assay [7], 2 µM (≈ 0.691 µg/mL).
As for `NNC(=O)c1ccncc1` [ISONIAZID], the minimum inhibitory concentration (MIC) in assay [4] is 3.9 µM (≈ 0.535 µg/mL); in assay [5], greater than 31.3 µM; in assay [6], greater than 31.3 µM; in assay [7], 3.9 µM (≈ 0.535 µg/mL); in assay [8], 7.8 µM (≈ 1.07 µg/mL).
`COc1ccc(COc2ccc(CNCc3ccccc3)cc2)cc1` gave an IC50 in assay [1] of 12 µM. In addition, the MIC in [2] worked out at 3.9 µM (≈ 1.3 µg/mL); in assay [3] it was 12.5 µM (≈ 4.17 µg/mL); in [4] it was 62.5 µM (≈ 20.8 µg/mL); in assay [5], 31.3 µM (≈ 10.4 µg/mL); in assay [6], 31.3 µM (≈ 10.4 µg/mL).
The molecule `Brc1ccccc1COc1ccc(CNCc2ccccc2)cc1` had an IC50 in assay [1] of roughly 8 µM. Moreover, the MIC in assay [2] was 3.9 µM (≈ 1.49 µg/mL); in assay [3], 100 µM (≈ 38.2 µg/mL); in assay [4] it was 1 µM (≈ 0.382 µg/mL); in [5], 31.3 µM (≈ 12 µg/mL); in assay [6], 15.6 µM (≈ 5.96 µg/mL); in assay [7], 3.9 µM (≈ 1.49 µg/mL). Moreover, the MIC in [8] worked out at 3.9 µM (≈ 1.49 µg/mL).
As to `c1ccc(COc2ccccc2CNCc2cccnc2)cc1`, the IC50 in assay [1] is roughly 50 µM. The MIC was greater than 250 µM in assay [2]; 2.5 µg/mL in [9]; greater than 100 µM in assay [3]; greater than 62.5 µM in assay [4]; greater than 62.5 µM in assay [5]; greater than 62.5 µM in assay [6]. In addition, the MIC in assay [7] and in [8] was greater than 62.5 µM throughout.
In turn, `Fc1ccc(COc2cccc(CNCc3cccnc3)c2)cc1` yielded an IC50 in assay [1] of 6.4 µM. Also, the MIC is 62.5 µM (≈ 20.1 µg/mL) in assay [2]; no more than 1.25 µg/mL in assay [9]; 100 µM (≈ 32.2 µg/mL) in [3]; greater than 62.5 µM in assay [4]; greater than 62.5 µM in assay [5]; greater than 62.5 µM in assay [6]. Besides, the MIC in assay [7] and in assay [8] was greater than 62.5 µM each time.
As for `c1ccc(COc2ccc(CNCc3ccncc3)cc2)cc1`, in assay [1], the IC50 is roughly 40 µM. The MIC was greater than 62.5 µM in [2]; 50 µM (≈ 15.2 µg/mL) in [3]; greater than 62.5 µM in [4]; greater than 62.5 µM in assay [5]; 2 µM (≈ 0.609 µg/mL) in assay [6]; 62.5 µM (≈ 19 µg/mL) in [7].
The molecule `Fc1ccc(COc2ccc(CNCc3ccccc3)cc2)cc1` came in with an IC50 in [1] greater than 200 µM. Also, the MIC in assay [2] is greater than 250 µM; in [3] it was greater than 100 µM; in [4] it was greater than 62.5 µM; in assay [5] it was greater than 62.5 µM; in assay [6], greater than 62.5 µM; in [7] it was greater than 62.5 µM. In assay [8], the MIC is greater than 62.5 µM.
In assay [1], `Cc1ccc(COc2ccc(CNCc3ccccc3)cc2)cc1` showed an IC50 greater than 200 µM. Also, the MIC in assay [2] came to 15.6 µM (≈ 4.95 µg/mL); in assay [3], 1.56 µM (≈ 0.495 µg/mL); in assay [4], 1 µM (≈ 0.317 µg/mL); in assay [5] it was 31.3 µM (≈ 9.94 µg/mL); in [6] it was 15.6 µM (≈ 4.95 µg/mL); in [7], 15.6 µM (≈ 4.95 µg/mL). In [8], the MIC amounted to 15.6 µM (≈ 4.95 µg/mL).
In [1], `c1ccc(CNCc2ccc(OCc3ccc(-c4ccccc4)cc3)cc2)cc1` returned an IC50 greater than 200 µM. The MIC in [2] is 2 µM (≈ 0.759 µg/mL); in assay [3], 12.5 µM (≈ 4.74 µg/mL); in assay [5] it was 7.8 µM (≈ 2.96 µg/mL); in [6], greater than 62.5 µM; in assay [7], 7.8 µM (≈ 2.96 µg/mL); in assay [8], 15.6 µM (≈ 5.92 µg/mL).
In assay [1], `Fc1ccc(COc2cccc(CNCc3ccccc3)c2)cc1` showed an IC50 of 7.3 µM. For the same molecule, the MIC in [2] is 3.9 µM (≈ 1.25 µg/mL); in assay [3], 50 µM (≈ 16.1 µg/mL); in assay [5], 31.3 µM (≈ 10.1 µg/mL); in assay [6], 15.6 µM (≈ 5.01 µg/mL).
In assay [1], `c1ccc(CNCc2ccccc2OCc2ccccc2)cc1` returned an IC50 of roughly 15 µM. In addition, in [9], the result was Active. The MIC in assay [3] was 100 µM (≈ 30.3 µg/mL); in assay [4], greater than 62.5 µM; in assay [6], greater than 62.5 µM; in assay [7], 31.3 µM (≈ 9.5 µg/mL); in assay [8], 15.6 µM (≈ 4.73 µg/mL).
Regarding `c1ccc(COc2ccccc2CNCc2ccncc2)cc1`, the IC50 in [1] is roughly 40 µM. Further, the MIC in assay [2] was 125 µM (≈ 38 µg/mL); in assay [9], 2.5 µg/mL; in assay [3] it was greater than 100 µM; in assay [4] it was greater than 62.5 µM; in [5], greater than 62.5 µM; in assay [6] it was greater than 62.5 µM. Besides, the MIC in assay [7] was greater than 62.5 µM; in assay [8], 62.5 µM (≈ 19 µg/mL).
`CC(C)(C)c1ccc(COc2ccc(CNCc3ccccc3)cc2)cc1`: in assay [1], the IC50 was greater than 200 µM. Also, the MIC was 1 µM (≈ 0.36 µg/mL) in assay [2]; 12.5 µM (≈ 4.49 µg/mL) in [3]; 3.9 µM (≈ 1.4 µg/mL) in assay [4]; 7.8 µM (≈ 2.8 µg/mL) in assay [5]; 31.3 µM (≈ 11.3 µg/mL) in assay [6].
Regarding `Fc1ccc(COc2cccc(CNCc3ccncc3)c2)cc1`, in [1], inhibition was half-maximal at 14 µM (IC50). The MIC in assay [2] was 31.3 µM (≈ 10.1 µg/mL); in assay [3], 100 µM (≈ 32.2 µg/mL); in [4] it was greater than 62.5 µM; in assay [5] it was greater than 62.5 µM; in [6] it was greater than 62.5 µM; in assay [7], greater than 62.5 µM. The MIC in assay [8] is greater than 62.5 µM. Further, the outcome in [9] was Active.
In [1], `c1ccc(COc2ccc(CNCc3cccnc3)cc2)cc1` displayed an IC50 of roughly 40 µM. Besides, the MIC in [2] is 31.3 µM (≈ 9.53 µg/mL); in assay [3], 100 µM (≈ 30.4 µg/mL); in [4], greater than 62.5 µM; in assay [5], greater than 62.5 µM; in assay [6] it was 31.3 µM (≈ 9.53 µg/mL); in assay [7], 31.3 µM (≈ 9.53 µg/mL).
In the case of `Brc1ccc(COc2ccccc2CNCc2ccncc2)cc1`, the IC50 in assay [1] was 4.3 µM. Besides, the MIC is no more than 1.25 µg/mL in [9]; 25 µM (≈ 9.58 µg/mL) in assay [3]; greater than 62.5 µM in [4]; greater than 62.5 µM in assay [5]; greater than 62.5 µM in assay [6].
As for `c1ccc(CNCc2ccc(OCc3ccccc3)cc2)cc1`, in assay [1], the IC50 was greater than 200 µM. Besides, the MIC in assay [2] is 62.5 µM (≈ 19 µg/mL); in [3] it was 100 µM (≈ 30.3 µg/mL); in assay [5] it was greater than 62.5 µM; in [6] it was 62.5 µM (≈ 19 µg/mL); in assay [7], 15.6 µM (≈ 4.73 µg/mL); in [8], 3.9 µM (≈ 1.18 µg/mL).
`Clc1ccc(COc2cccc(CNCc3ccccc3)c2)cc1`: in [1], the IC50 stood at 5.4 µM. The MIC in assay [2] is 15.6 µM (≈ 5.27 µg/mL); in assay [3], 12.5 µM (≈ 4.22 µg/mL); in assay [5] it was 31.3 µM (≈ 10.6 µg/mL).
As for `NCC[C@H](O)C(=O)N[C@@H]1C[C@H](N)[C@@H](O[C@H]2O[C@H](CN)[C@@H](O)[C@H](O)[C@H]2O)[C@H](O)[C@H]1O[C@H]1O[C@H](CO)[C@@H](O)[C@H](N)[C@H]1O` [AMIKACIN], the MIC in assay [4] was no more than 0.25 µM; in [5] it was 1 µM (≈ 0.586 µg/mL); in [6], 3.9 µM (≈ 2.28 µg/mL); in assay [7] it was no more than 0.25 µM; in assay [8], 0.25 µM (≈ 0.146 µg/mL).

As a reminder, the IC50 is the concentration that gives 50% inhibition. What is called MIC is the least concentration at which growth counts as inhibited.

Source of the values: ChEMBL document CHEMBL5346863, “Discovery of substituted benzyloxy-benzylamine inhibitors of acetyltransferase Eis and their anti-mycobacterial activity” (Eur J Med Chem, 2022).
